Experimental data: patent US20030022813A1, “Treating pain by targeting hyperpolarization-activated, cyclic nucleotide-gated channels” (priority 2001, published 2003)
Entries after “also recorded” stand apart in the source; their conditions may differ.

Tests used:
human HCN1 = molecular target: T1, human HCN1 (Homo sapiens, UniProt O60741); assay: Two-electrode voltage clamp of Xenopus oocytes injected with human HCN1 cRNA; format: cell-based; settings: for block of HCN1 currents: Cs+ 3 mM in ND-96
T1 construct: expressed in transfected cells; host or cells: Xenopus laevis oocytes injected with cRNA transcribed from pGEM HE-human HCN1
T1 sequence (O60741 1-890): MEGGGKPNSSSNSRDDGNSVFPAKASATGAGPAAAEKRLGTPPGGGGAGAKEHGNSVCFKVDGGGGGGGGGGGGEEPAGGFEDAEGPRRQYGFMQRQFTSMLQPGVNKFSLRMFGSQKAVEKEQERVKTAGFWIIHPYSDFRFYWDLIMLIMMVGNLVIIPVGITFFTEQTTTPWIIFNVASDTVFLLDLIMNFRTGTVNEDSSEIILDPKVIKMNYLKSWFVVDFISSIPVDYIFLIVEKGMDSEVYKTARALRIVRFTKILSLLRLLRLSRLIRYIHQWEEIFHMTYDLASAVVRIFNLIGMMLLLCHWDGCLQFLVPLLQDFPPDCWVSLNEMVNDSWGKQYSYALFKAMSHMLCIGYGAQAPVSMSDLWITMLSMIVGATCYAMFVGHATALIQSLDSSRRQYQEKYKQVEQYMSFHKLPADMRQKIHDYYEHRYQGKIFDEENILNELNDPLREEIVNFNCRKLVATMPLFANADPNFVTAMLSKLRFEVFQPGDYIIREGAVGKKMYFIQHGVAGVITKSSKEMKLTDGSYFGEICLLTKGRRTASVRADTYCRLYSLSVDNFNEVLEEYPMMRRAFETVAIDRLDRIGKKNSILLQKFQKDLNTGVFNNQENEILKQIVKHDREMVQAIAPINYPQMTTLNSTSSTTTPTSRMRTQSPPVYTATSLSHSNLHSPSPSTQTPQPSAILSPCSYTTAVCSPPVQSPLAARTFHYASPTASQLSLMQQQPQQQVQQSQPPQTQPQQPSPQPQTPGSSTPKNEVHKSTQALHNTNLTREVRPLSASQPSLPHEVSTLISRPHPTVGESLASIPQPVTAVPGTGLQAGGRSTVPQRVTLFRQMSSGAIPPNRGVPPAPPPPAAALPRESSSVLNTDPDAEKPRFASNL

human HCN3 = molecular target: T2, human HCN3 (Homo sapiens, UniProt Q9P1Z3); assay: Whole cell patch clamp of HEK293 cells stably expressing human HCN3; format: cell-based
T2 construct: expressed in transfected cells; host or cells: HEK293 cells stably transfected with hHCN3-pCDNA3.1 Zeo
T2 sequence (Q9P1Z3 1-774): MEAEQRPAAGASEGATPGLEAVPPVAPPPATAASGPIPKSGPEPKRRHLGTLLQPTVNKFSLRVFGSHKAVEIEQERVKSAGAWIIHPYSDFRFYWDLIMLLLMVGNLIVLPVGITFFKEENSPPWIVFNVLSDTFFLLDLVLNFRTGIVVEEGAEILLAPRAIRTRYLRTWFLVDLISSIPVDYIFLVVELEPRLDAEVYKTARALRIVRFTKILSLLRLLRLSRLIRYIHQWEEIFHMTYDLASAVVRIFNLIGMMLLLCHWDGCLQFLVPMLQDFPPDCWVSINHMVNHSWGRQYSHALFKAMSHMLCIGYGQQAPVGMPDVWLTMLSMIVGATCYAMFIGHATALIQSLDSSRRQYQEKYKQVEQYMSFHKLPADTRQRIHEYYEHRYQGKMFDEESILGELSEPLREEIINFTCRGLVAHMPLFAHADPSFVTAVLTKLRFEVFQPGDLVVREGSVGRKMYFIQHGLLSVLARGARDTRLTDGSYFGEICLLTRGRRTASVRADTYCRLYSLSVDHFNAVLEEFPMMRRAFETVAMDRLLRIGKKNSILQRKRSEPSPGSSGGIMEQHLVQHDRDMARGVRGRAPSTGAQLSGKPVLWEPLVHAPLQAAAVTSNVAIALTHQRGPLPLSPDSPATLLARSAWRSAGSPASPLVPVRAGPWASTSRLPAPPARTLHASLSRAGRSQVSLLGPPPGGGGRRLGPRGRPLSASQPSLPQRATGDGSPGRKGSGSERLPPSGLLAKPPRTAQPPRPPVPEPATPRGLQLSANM

Ih in large DRG neurons = assay: Whole cell patch clamp of Ih in acutely dissociated large L5 DRG neurons of SNL and control rats; format: cell-based, rat
Ih = settings: applied intracellularly at 5 or 10 mM; cited from earlier work
[1] = tested on: spontaneous firing of injured primary afferents (Aβ and Aδ fibers); assay: In vitro single fiber recording of spontaneous (ectopic) discharges in excised dorsal root/DRG/spinal nerve preparations from SNL rats; design: species or system rat
SNL rats = assay: Tactile allodynia (von Frey 50% paw withdrawal threshold) in the SNL (Chung) neuropathic pain model; format: in vivo, rat; settings: i.p.
Description: Preparation of SNL (spinal nerve ligation) model: All studies were conducted in keeping with the guidelines of the Institutional Animal Care Committees of the University of California, San Diego and RWJPRI. Male Harlan Sprague-Dawley rats, 100-150 g, were housed in cages with solid bottoms and sawdust bedding, with a 12/12 h reversed light cycle (lights on 2100-900), and allowed free access to food pellets and water. Animals were housed in groups of 2 after surgical interventions. A surgical neuropathy was created as follows, to create a model commonly referred to as the SNL, or spinal nerve ligation model, also commonly referred to as the Chung model. Under isoflurane/oxygen anesthesia, a dorsal midline incision was made from approximately L3-S2. Using a mixture of sharp and blunt dissection, the left L6/S1 posterior interarticular process was exposed and resected to permit adequate visualization of the L6 transverse process, which was gently removed. Careful teasing of the underlying fascia exposed the left L4 and L5 spinal nerves distal to their emergence from the intervertebral foramina. The nerves were gently separated, and the L5 and in some cases either the L4 (for in vitro electrophysiology recordings) or the L6 nerve firmly ligated with 6-0 silk suture material. The wound was then inspected for hemostasis and closed in two layers. Animals with thresholds greater than 4 g were considered unsuccessful preparations(Chaplan et al., (1994) Journal of Neuroscience Methods 53: 55-63).
Behavioral assessment: Behavioral signs of allodynia were documented as follows. Briefly, rats were transferred to a testing cage with a wire mesh bottom and allowed to acclimate for 10-15 minutes. […] Lifting of the paw was recorded as a positive response and the next lightest filament chosen for the next measurement. […]

normal rats = assay: 55° C. hot plate test (latency to paw lick), acute thermally induced pain; format: in vivo, rat; settings: 10 mg/kg i.p.
Description: A cutoff of 20 seconds of thermal surface exposure was employed to prevent tissue damage. Drug administration: Normal rats were administered ZD7288, 10 mg/kg, or an equivalent volume of saline, i.p. at time 0. Behavioral assessments were performed at 45, 60 and 75 minutes after drug administration.

CFA-injected rats = assay: Tactile allodynia in the complete Freund's adjuvant (CFA) paw model of inflammatory pain; format: in vivo, rat
[2] = tested on: rat mild thermal injury model; assay: Spontaneous pain behaviors in the rat mild thermal injury (first-degree burn) model; settings: for suppression of spontaneous pain behaviors: 30 and 60 min; for adverse behavioral effects: morphine 3 mg/kg or ZD7288 10 mg/kg i.p.
[3] = tested on: preclinical models of neuropathic pain; settings: cited from earlier work
[4] = tested on: native Ih in normal rat L4 dorsal root ganglion neurons; assay: Whole cell patch clamp of native Ih in dissociated L4 DRG neurons of uninjured rats (lidocaine); format: cell-based; settings: bath-applied at neutral pH
Description: Lidocaine was tested for its effect on Ih expressed in dissociated L4 dorsal root ganglion neurons from uninjured rats to determine whether this well known Na channel blocker could have other mechanisms of action.
DRG were extirpated, dissociated and cultured 3-4 days on poly-D-lysine coated coverslips as described in Example 10. Ih was measured using the whole cell configuration of the patch clamp technique according to the methods described in Example 10 with the exception that the pipette solution was the solution used in Example 3. Neurons were challenged with a family of hyperpolarizing voltage pulses (−60 mV to −150 mV in increments of 10 mV) from a holding potential of −50 mV. Ih was determined at the end of 600 msec duration test pulses. Lidocaine was bath-applied at neutral pH and the percent inhibition of control Ih was determined after lidocaine achieved steady state block. Plotted is the steady state current observed at −134 mV as a percent of control after incubation of lidocaine at the indicated concentrations. […] Lidocaine block was reversible. Data were obtained from 3 cells having control Ih densities of −1.5, −2.0 and −2.2 pA/pF.

[5] = tested on: ectopic firing in injured peripheral nerves; settings: systemically administered; cited from earlier work

## [Cl-].[Cs+] [Cs^+, CsCl]
Human HCN1; Cs+ 3 mM
  effect on endogenous inward currents of oocytes: no effect
Human HCN1; Ih evoked by stepping to −80 mV, n=3
  block of HCN1 currents: 94%
Human HCN1; Ih evoked by stepping to −100 mV, n=3
  block of HCN1 currents: 92%
Human HCN1; Ih evoked by stepping to −120 mV, n=3
  block of HCN1 currents: 90%
Human HCN1; Cs+ 3 mM, n=3
  block of low threshold inward currents in HCN1-injected oocytes, reversibility: reversibly blocked
Human HCN3; 3 mM CsCl
  block of hyperpolarization-induced inward currents (Ih): completely blocked
Human HCN3; Cs+ 3 mM
  reversibility of effect on HCN3 currents: rapidly reversible
Ih in large DRG neurons; extracellular Cs+ 3 mM
  block of Ih in large DRG neurons: efficacious block

## CC[N+](CC)(CC)CC(=O)Nc1c(C)cccc1C [QX-314]
Ih
  block of Ih: blocks Ih

## CCN(c1ccccc1)c1cc(=NC)n(C)c(C)n1.Cl [ZD7288]
Human HCN3; ZD7288 50 μM, subsequently washed, previously 6 of 6 cells expressed Ih
  cells with no detectable Ih after previous bath exposure and wash: 3 of 3
Human HCN3; ZD7288 50 μM, n=3
  block of hyperpolarization-induced inward currents (Ih): 98+/−2%
Human HCN3; ZD7288 50 μM, washout period of at least 15 min
  reversibility of effect on HCN3 currents: did not reverse
[1]; 100 micromolar
  effect on spontaneous firing of Aδ fiber: attenuation of firing
  time to complete suppression of ectopic firing, typical Aβ fiber: 3 to 4 min
[1]; after application of ZD7288
  conduction blockade of evoked action potentials: no conduction blockade
[1]; bath application 100 μM for 5 min
  suppression of spontaneous discharges of Aβ fibers: complete suppression; also recorded: completely suppressed
SNL rats
  efficacy of suppression of allodynic responses (% MPE): 75.7+/−15.4%
SNL rats; 1, 3, 10 mg/kg
  suppression of tactile allodynia: suppressed allodynic responses in a dose-dependent manner; also recorded: blocked in a dose dependent manner; also recorded: suppressed the tactile allodynia
SNL rats; up to 10 mg/kg
  behavioral adverse effects / motor function: No untoward behavioral effects; also recorded: normal motor function; also recorded: without overt adverse effects on behavior
Normal rats
  effect on acute thermally-evoked pain: minimal effect
Normal rats; 45 or 60 min
  difference from saline in hot plate latency: No statistically significant difference
Normal rats; 75 min, statistically significant, minor
  difference from saline in hot plate latency: approximately 15%
CFA-injected rats; ZD7288 10 mg/kg i.p., 10 mg/kg
  suppression of CFA-induced tactile allodynia: suppressed allodynia; also recorded: markedly suppressed
Ih in large DRG neurons; ZD7288 50 μM
  block of Ih in large DRG neurons: efficacious block
[2]; ZD7288 10 mg/kg i.p., 10 mg/kg
  suppression of spontaneous pain behaviors: near complete suppression; also recorded: suppressed spontaneous pain
[2]
  adverse behavioral effects: No adverse behavioral effects

## CCCCN1CCCCC1C(=O)Nc1c(C)cccc1C (centres unmarked) [bupivacaine]
[3]
  anti-hyperalgesic activity: does not possess any anti-hyperalgesic activity

## NCC1(CC(=O)O)CCCCC1 [gabapentin]
CFA-injected rats; gabapentin 100 mg/kg i.p.
  suppression of CFA-induced tactile allodynia: not

## CC(C)Cc1ccc(C(C)C(=O)O)cc1 (centres unmarked) [ibuprofen]
CFA-injected rats; ibuprofen 30 mg/kg i.p.
  suppression of CFA-induced tactile allodynia: suppressed
CFA-injected rats; ibuprofen 30 mg/kg i.p., listed as Ibuprofen
  suppression of CFA-induced tactile allodynia: some efficacy

## CCN(CC)CC(=O)Nc1c(C)cccc1C [lidocaine]
[4]
  reversibility of block of Ih: reversible
[5]
  effect on ectopic firing in injured peripheral nerves: stops the ectopic firing

## CN1CC[C@]23c4c5ccc(O)c4O[C@H]2[C@@H](O)C=C[C@H]3[C@H]1C5 [morphine]
CFA-injected rats; morphine 3 mg/kg i.p.
  suppression of CFA-induced tactile allodynia: suppressed
[2]; morphine 3 mg/kg i.p.
  suppression of spontaneous pain behaviors: near complete suppression; also recorded: suppressed spontaneous pain
[2]
  adverse behavioral effects: No adverse behavioral effects
